The numbers were not newly measured in patent US11648240B2, “Pharmaceutical composition comprising famotidine, lidocaine and melatonin” (Cellix Bio Private Limited, priority 2021, dated 2023), which cites them from elsewhere.

One data set deals with CYP1A2 (Homo sapiens, UniProt P05177). Particulars: stated as believed, no test described.
Data set [1] relates to human immunodeficiency virus. Particulars: in-vitro studies.
Another data set relates to sars-cov-2. The settings on record: in-vitro studies.

CYP1A2, sequence (P05177 whole entry, species assumed): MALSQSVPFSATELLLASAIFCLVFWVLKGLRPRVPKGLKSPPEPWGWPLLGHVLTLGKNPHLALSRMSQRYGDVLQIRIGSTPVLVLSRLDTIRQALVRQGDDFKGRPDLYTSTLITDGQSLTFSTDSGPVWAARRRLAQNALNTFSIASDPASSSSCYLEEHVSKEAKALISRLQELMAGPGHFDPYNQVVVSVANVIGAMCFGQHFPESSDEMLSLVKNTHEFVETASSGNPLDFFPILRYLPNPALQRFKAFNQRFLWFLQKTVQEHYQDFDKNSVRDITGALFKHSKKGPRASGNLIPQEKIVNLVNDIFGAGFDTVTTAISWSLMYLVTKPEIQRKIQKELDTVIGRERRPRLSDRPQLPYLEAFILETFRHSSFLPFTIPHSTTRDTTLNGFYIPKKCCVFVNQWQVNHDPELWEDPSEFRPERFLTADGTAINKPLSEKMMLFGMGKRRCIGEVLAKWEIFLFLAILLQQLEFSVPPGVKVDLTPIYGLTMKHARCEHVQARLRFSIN

For `NC(N)=Nc1nc(CSCCC(N)=NS(N)(=O)=O)cs1` [Famotidine], the “metabolism through Cytochrome P450 system (CYP1A2)” value at CYP1A2 is 25-30%. For the same compound, the “human immunodeficiency virus replication” value in data set [1] is on record as “inhibits”. Besides, in the data set on sars-cov-2, the sars-cov-2 replication result is recorded as “inhibits”.
